Here are results for 23 compounds from patent publication US20240199587A1, “HETEROCYCLIC COMPOUNDS” (Hoffmann-La Roche Inc., priority 2021, published 2024).

This assay addresses T1, MAGL (Homo sapiens, UniProt Q99685).
T1 sequence (Q99685 1-303): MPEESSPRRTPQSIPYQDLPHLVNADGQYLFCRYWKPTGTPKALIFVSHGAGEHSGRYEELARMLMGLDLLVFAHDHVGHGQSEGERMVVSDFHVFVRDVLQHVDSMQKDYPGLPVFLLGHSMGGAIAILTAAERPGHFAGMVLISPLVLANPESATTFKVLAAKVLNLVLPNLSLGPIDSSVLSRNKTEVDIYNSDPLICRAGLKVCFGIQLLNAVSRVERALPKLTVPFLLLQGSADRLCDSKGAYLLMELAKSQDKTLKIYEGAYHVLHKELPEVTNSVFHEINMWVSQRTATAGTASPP
Put plainly: 2-AG assay (MAGL inhibitory activity, hydrolysis of 2-arachidonoylglycerol to arachidonic acid followed by mass spectrometry). The format is biochemical. As to conditions: 8 μM 2-arachidonoylglycerol, 15 min pre-incubation, 30 min incubation at RT, RapidFire MS readout. A digest of the protocol: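 Arachidonic acid released from 8 μM 2-arachidonoylglycerol was quantified by online SPE triple-quadrupole MS (negative ESI, 303.1→259.1), normalised to d8-arachidonic acid internal standard. Reaction ran 30 min at RT after 15 min RT compound pre-incubation with […] MAGL in TRIS/EDTA/Tween-20 buffer, 2.5% DMSO.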
On to `CS(=O)(=O)c1ccc(CC2CC3(C2)CN(C(=O)N2CC4(CC(n5cnc(C6(O)CC6)n5)C4)C2)C3)cc1C(F)(F)F` [Example 385, [6-[3-(1-hydroxycyclopropyl)-1,2,4-triazol-1-yl]-2-azaspiro[3.3]heptan-2-yl]-[6-[[4-methylsulfonyl-3-(trifluoromethyl)phenyl]methyl]-2-azaspiro[3.3]heptan-2-yl]methanone], for which the IC50 (as a rule, the concentration that inhibits the measured activity by half) came to 1.25 nM.
The figure for `CS(=O)(=O)c1cc(Cl)ccc1-c1ccc(C2CN(C(=O)N3CC4(CC(c5ccc(C(F)(F)F)nc5)C4)C3)C2)cn1` [Example 386, [3-[6-(4-chloro-2-methylsulfonyl-phenyl)-3-pyridyl]azetidin-1-yl]-[6-[6-(trifluoromethyl)-3-pyridyl]-2-azaspiro[3.3]heptan-2-yl]methanone] is 142 nM; for `N#Cc1cc(C(F)(F)F)ncc1O[C@H]1CCC2(C1)CN(C(=O)N1CC3(CC(n4cnc(C5(O)CC5)n4)C3)C1)C2` [Example 387, 5-[[(6S)-2-[6-[3-(1-hydroxycyclopropyl)-1,2,4-triazol-1-yl]-2-azaspiro[3.3]heptane-2-carbonyl]-2-azaspiro[3.4]octan-6-yl]oxy]-2-(trifluoromethyl)pyridine-4-carbonitrile] it is 196 nM.
The compound `O=C(N1CC2(CCC(Cc3ncc(F)cc3F)C2)C1)N1CC2(CC(n3cnc(C4(O)CC4)n3)C2)C1` (centres unmarked) [Example 388, [6-[(3,5-difluoro-2-pyridyl)methyl]-2-azaspiro[3.4]octan-2-yl]-[6-[3-(1-hydroxycyclopropyl)-1,2,4-triazol-1-yl]-2-azaspiro[3.3]heptan-2-yl]methanone] displayed a 50% inhibitory concentration (IC50) of 8.72 nM.
The figure for `O=C(N1CC2(CCC(Cc3ccc(C(F)(F)F)cn3)C2)C1)N1CC2(CC(n3cnc(C4(O)CC4)n3)C2)C1` (centres unmarked) [Example 389, [6-[3-(1-hydroxycyclopropyl)-1,2,4-triazol-1-yl]-2-azaspiro[3.3]heptan-2-yl]-[6-[[5-(trifluoromethyl)-2-pyridyl]methyl]-2-azaspiro[3.4]octan-2-yl]methanone] is 8.68 nM.
In turn, `O=C(N1CC2(CC(Cc3ccc(F)cn3)C2)C1)N1CC2(CC(n3cnc(C4(O)CC4)n3)C2)C1` [Example 390, [6-[(5-fluoro-2-pyridyl)methyl]-2-azaspiro[3.3]heptan-2-yl]-[6-[3-(1-hydroxycyclopropyl)-1,2,4-triazol-1-yl]-2-azaspiro[3.3]heptan-2-yl]methanone] registered an IC50 of 30.1 nM.
The same measure for `O=C(N1CC2(CCN(Cc3ccc(C(F)(F)F)cn3)CC2)C1)N1CC2(CC(n3cnc(C4(O)CC4)n3)C2)C1` [Example 391, [6-[3-(1-hydroxycyclopropyl)-1,2,4-triazol-1-yl]-2-azaspiro[3.3]heptan-2-yl]-[7-[[5-(trifluoromethyl)-2-pyridyl]methyl]-2,7-diazaspiro[3.5]nonan-2-yl]methanone]: 14.1 nM; for `O=C(N1CC2(CCN(Cc3ccc(C(F)(F)F)nc3)CC2)C1)N1CC2(CC(n3cnc(C4(O)CC4)n3)C2)C1` [Example 392, [6-[3-(1-hydroxycyclopropyl)-1,2,4-triazol-1-yl]-2-azaspiro[3.3]heptan-2-yl]-[7-[[6-(trifluoromethyl)-3-pyridyl]methyl]-2,7-diazaspiro[3.5]nonan-2-yl]methanone]: 197 nM; for `COc1cc(C(F)(F)F)ccc1CNC1CN(C(=O)N2CC3(CC(n4cnc(C5(O)CC5)n4)C3)C2)C1` [Example 393, [6-[3-(1-hydroxycyclopropyl)-1,2,4-triazol-1-yl]-2-azaspiro[3.3]heptan-2-yl]-[3-[[2-methoxy-4-(trifluoromethyl)phenyl]methylamino]azetidin-1-yl]methanone]: 401 nM.
As for `CC1(Cc2nnc(-c3ccc(C4CN(C(=O)N5CC6(CC(n7cnc(C8(O)CC8)n7)C6)C5)C4)cc3)[nH]2)CC1` [Example 394, [6-[3-(1-hydroxycyclopropyl)-1,2,4-triazol-1-yl]-2-azaspiro[3.3]heptan-2-yl]-[3-[4-[5-[(1-methylcyclopropyl)methyl]-4H-1,2,4-triazol-3-yl]phenyl]azetidin-1-yl]methanone], half-maximal inhibition (IC50) required 43.7 nM.
In the case of `O=C(N1CC(C23CC(NCC4(C(F)(F)F)CC4)(C2)C3)C1)N1CC2(CC(n3cnc(C4(O)CC4)n3)C2)C1` [Example 395, [6-[3-(1-hydroxycyclopropyl)-1,2,4-triazol-1-yl]-2-azaspiro[3.3]heptan-2-yl]-[3-[3-[[1-(trifluoromethyl)cyclopropyl]methylamino]-1-bicyclo[1.1.1]pentanyl]azetidin-1-yl]methanone], the IC50 stood at 14.7 nM.
The same measure for `CS(=O)(=O)c1cc(Cl)ccc1-c1ccc(C2CN(C(=O)N3CC4(CC(n5cnc(C6(O)CC6)n5)C4)C3)C2)cc1` [Example 396, [3-[4-(4-chloro-2-methylsulfonyl-phenyl)phenyl]azetidin-1-yl]-[6-[3-(1-hydroxycyclopropyl)-1,2,4-triazol-1-yl]-2-azaspiro[3.3]heptan-2-yl]methanone]: 0.26 nM; for `O=C(N1CC(c2ccc(N3CC[C@H](C(F)(F)F)C3)nc2)C1)N1CC2(CC(n3cnc(C4(O)CC4)n3)C2)C1` [Example 397, [6-[3-(1-hydroxycyclopropyl)-1,2,4-triazol-1-yl]-2-azaspiro[3.3]heptan-2-yl]-[3-[6-[(3S)-3-(trifluoromethyl)pyrrolidin-1-yl]-3-pyridyl]azetidin-1-yl]methanone]: 14.4 nM.
`O=C(N1CC(OCc2ccc(S(=O)(=O)C(F)(F)F)cc2F)C1)N1CC2(CC(n3cnc(C4(O)CC4)n3)C2)C1` [Example 398, [3-[[2-fluoro-4-(trifluoromethylsulfonyl)phenyl]methoxy]azetidin-1-yl]-[6-[3-(1-hydroxycyclopropyl)-1,2,4-triazol-1-yl]-2-azaspiro[3.3]heptan-2-yl]methanone] showed an IC50 of 34.8 nM.
Compound `O=C(N1CC(OCc2ccc(S(=O)(=O)C(F)(F)F)cc2)C1)N1CC2(CC(n3cnc(C4(O)CC4)n3)C2)C1` [Example 399, [6-[3-(1-hydroxycyclopropyl)-1,2,4-triazol-1-yl]-2-azaspiro[3.3]heptan-2-yl]-[3-[[4-(trifluoromethylsulfonyl)phenyl]methoxy]azetidin-1-yl]methanone] displayed a half-maximal inhibitory concentration (IC50) of 102 nM.
The figure for `O=C(N1CC2(CC(Cc3ncc(F)cc3F)C2)C1)N1CC2(CC(n3cnc(C4(O)CC4)n3)C2)C1` [Example 402, [6-[(3,5-difluoro-2-pyridyl)methyl]-2-azaspiro[3.3]heptan-2-yl]-[6-[3-(1-hydroxycyclopropyl)-1,2,4-triazol-1-yl]-2-azaspiro[3.3]heptan-2-yl]methanone] is 3.91 nM; for `CS(=O)(=O)c1ccc(CC2CC3(C2)CN(C(=O)N2CC4(CC(n5cnc(C6(O)CC6)n5)C4)C2)C3)c(F)c1` [Example 403, [6-[(2-fluoro-4-methylsulfonyl-phenyl)methyl]-2-azaspiro[3.3]heptan-2-yl]-[6-[3-(1-hydroxycyclopropyl)-1,2,4-triazol-1-yl]-2-azaspiro[3.3]heptan-2-yl]methanone] it is 1.25 nM.
The same measure for `O=C(N1CC2(CC(Cc3ccc(Cl)cn3)C2)C1)N1CC2(CC(n3cnc(C4(O)CC4)n3)C2)C1` [Example 404, [6-[(5-chloro-2-pyridyl)methyl]-2-azaspiro[3.3]heptan-2-yl]-[6-[3-(1-hydroxycyclopropyl)-1,2,4-triazol-1-yl]-2-azaspiro[3.3]heptan-2-yl]methanone]: 2.33 nM; for `CS(=N)(=O)c1ccc(CC2CC3(C2)CN(C(=O)N2CC4(CC(n5cnc(C6(O)CC6)n5)C4)C2)C3)cc1` (centres unmarked) [Example 405, [6-[3-(1-hydroxycyclopropyl)-1,2,4-triazol-1-yl]-2-azaspiro[3.3]heptan-2-yl]-[6-[[4-(methylsulfonimidoyl)phenyl]methyl]-2-azaspiro[3.3]heptan-2-yl]methanone]: 169 nM.
The figure for `O=C(N1CC2(CC(Cc3ccc(C(F)(F)F)cn3)C2)C1)N1CC2(CC(n3cnc(C4(O)CC4)n3)C2)C1` [Example 408, [6-[3-(1-hydroxycyclopropyl)-1,2,4-triazol-1-yl]-2-azaspiro[3.3]heptan-2-yl]-[6-[[5-(trifluoromethyl)-2-pyridyl]methyl]-2-azaspiro[3.3]heptan-2-yl]methanone] is 0.31 nM; for `O=C(N1CC2(CC(Cc3ccc(C(F)(F)F)nn3)C2)C1)N1CC2(CC(n3cnc(C4(O)CC4)n3)C2)C1` [Example 409, [6-[3-(1-hydroxycyclopropyl)-1,2,4-triazol-1-yl]-2-azaspiro[3.3]heptan-2-yl]-[6-[[6-(trifluoromethyl)pyridazin-3-yl]methyl]-2-azaspiro[3.3]heptan-2-yl]methanone] it is 27.5 nM; for `O=C(N1CC2(CC(Cc3cnc(C(F)(F)F)nc3)C2)C1)N1CC2(CC(n3cnc(C4(O)CC4)n3)C2)C1` [Example 410, [6-[3-(1-hydroxycyclopropyl)-1,2,4-triazol-1-yl]-2-azaspiro[3.3]heptan-2-yl]-[6-[[2-(trifluoromethyl)pyrimidin-5-yl]methyl]-2-azaspiro[3.3]heptan-2-yl]methanone] it is 24.9 nM.
In turn, `CS(=O)(=O)c1cc(F)cc(CC2CC3(C2)CN(C(=O)N2CC4(CC(n5cnc(C6(O)CC6)n5)C4)C2)C3)c1` [Example 411, [6-[(3-fluoro-5-methylsulfonyl-phenyl)methyl]-2-azaspiro[3.3]heptan-2-yl]-[6-[3-(1-hydroxycyclopropyl)-1,2,4-triazol-1-yl]-2-azaspiro[3.3]heptan-2-yl]methanone] returned an IC50 of 16.3 nM.
